{"source": "paper PMC5768359", "about": "“Dietary quercetin potentiates the antiproliferative effect of interferon-α in hepatocellular carcinoma cells through activation of JAK/STAT pathway signaling by inhibition of SHP2 phosphatase” (Oncotarget, 2017)", "key": {"SHP2": {"molecular_target": "T1, SHP2 (Homo sapiens, UniProt Q06124)", "T1 construct": "gene PTPN11; GST-SHP2 (residues 205–593)", "T1 sequence (Q06124 205-593)": "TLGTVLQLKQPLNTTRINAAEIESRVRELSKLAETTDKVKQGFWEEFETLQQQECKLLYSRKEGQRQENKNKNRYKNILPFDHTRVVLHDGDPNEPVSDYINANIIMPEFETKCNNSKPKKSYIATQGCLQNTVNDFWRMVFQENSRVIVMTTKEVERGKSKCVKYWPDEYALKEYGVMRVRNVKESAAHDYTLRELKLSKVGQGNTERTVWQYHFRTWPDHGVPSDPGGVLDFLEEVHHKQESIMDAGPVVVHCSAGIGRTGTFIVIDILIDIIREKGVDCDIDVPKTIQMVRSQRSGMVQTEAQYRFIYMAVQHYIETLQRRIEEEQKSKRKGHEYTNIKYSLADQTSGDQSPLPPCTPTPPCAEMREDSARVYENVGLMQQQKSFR", "assay": "DiFMUP phosphatase assay with recombinant SHP2; supported by cellular thermal shift assay in HEK293A lysate", "type": "biochemical"}, "SHP1": {"molecular_target": "T2, SHP1 (Homo sapiens, UniProt P29350)", "T2 construct": "gene PTPN6", "T2 sequence (P29350 whole entry)": "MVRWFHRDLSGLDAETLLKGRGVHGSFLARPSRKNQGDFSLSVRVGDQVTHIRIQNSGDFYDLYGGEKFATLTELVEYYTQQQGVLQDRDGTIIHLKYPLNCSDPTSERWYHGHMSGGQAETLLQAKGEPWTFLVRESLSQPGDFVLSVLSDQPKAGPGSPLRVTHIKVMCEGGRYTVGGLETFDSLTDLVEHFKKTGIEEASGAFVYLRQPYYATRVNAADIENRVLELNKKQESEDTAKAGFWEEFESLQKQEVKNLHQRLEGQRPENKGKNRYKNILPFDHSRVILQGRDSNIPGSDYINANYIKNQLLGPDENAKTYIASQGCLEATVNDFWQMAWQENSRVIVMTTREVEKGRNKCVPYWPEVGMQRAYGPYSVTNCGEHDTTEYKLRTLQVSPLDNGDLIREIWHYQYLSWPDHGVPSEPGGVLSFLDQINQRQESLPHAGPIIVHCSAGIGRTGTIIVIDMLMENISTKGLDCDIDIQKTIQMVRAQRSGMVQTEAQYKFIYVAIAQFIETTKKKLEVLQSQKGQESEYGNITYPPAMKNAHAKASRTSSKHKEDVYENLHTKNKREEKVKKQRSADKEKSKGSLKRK", "assay": "DiFMUP phosphatase assay with recombinant SHP1; supported by thermal stability shift", "type": "biochemical"}}}
{"smiles": "O=c1c(O)c(-c2ccc(O)c(O)c2)oc2cc(O)cc(O)c12", "note": "[quercetin]", "values": [{"measurement": "IC50", "setting": "SHP2", "value": "10.2 ± 0.21", "unit": "µM"}, {"measurement": "IC50", "setting": "SHP1", "value": "31.1 ± 1.27", "unit": "µM"}]}
